The values that follow come from article PMC9350523 (Dose-Response, 2022).

Assay [1] concerns BRAF. Particulars: cited from earlier work.
For assay [2], the system named is glutamine synthetase 2 (GS2). Particulars: cited from earlier work.
Assay [3] addresses human PCNA (Homo sapiens, UniProt P12004). Description: Fluorescence anisotropy competition: displacement of 50 nM PL peptide from PCNA. It is filed as binding. The conditions noted are these: for f (hormesis parameter): f not different from 0 (95% confidence interval), no significant hormesis.
Setting [4] is: GS2 from chloroplasts of Lotus corniculatus.
Setting [5] is: UNG2(a.a.1-19) competitor, .25 μM PCNA, hormetic curve.

Ends that are not written are not given here.

human PCNA, sequence (P12004 whole entry): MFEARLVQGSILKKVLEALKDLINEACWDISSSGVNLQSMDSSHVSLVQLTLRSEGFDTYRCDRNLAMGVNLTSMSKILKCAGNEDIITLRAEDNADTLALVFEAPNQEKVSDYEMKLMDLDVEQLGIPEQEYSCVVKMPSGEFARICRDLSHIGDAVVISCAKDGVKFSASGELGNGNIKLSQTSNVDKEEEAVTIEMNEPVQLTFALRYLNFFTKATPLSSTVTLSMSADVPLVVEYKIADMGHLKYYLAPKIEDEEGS

For the molecule `CC(C)(C)c1nc(-c2cccc(NS(=O)(=O)c3c(F)cccc3F)c2F)c(-c2ccnc(N)n2)s1` [dabrafenib], in assay [1], the mode of inhibition result was “competitive with ATP”.
Regarding `CS(=N)(=O)CC[C@H](N)C(=O)O` (stereo partly shown) [methionine sulfoximine], the mode of inhibition result in assay [2] (GS2) is “competitive with glutamate and a somewhat irreversible inhibitor”. In addition, in assay [2] (setting [4]), the “GS2 activity at high methionine sulfoximine doses” value is recorded as “completely inhibit the enzyme” and the “GS2 activity at low methionine sulfoximine concentrations” value is given as “allosteric stimulatory effect on other subunits of the octamer”.
MIGQKTLYSFFSPSPARKR [UNG2(a.a.1-19)]: the “b (slope parameter)” value in assay [3] (UNG2(a.a.1-19) competitor, 1 μM PCNA, 50 nM PL peptide, hormetic curve) was 1.497; in assay [3] (UNG2(a.a.1-19) competitor, 1 μM PCNA, 50 nM PL peptide, standard curve) it was 1.143; in assay [3] (UNG2(a.a.1-19) competitor, .25 μM PCNA, 50 nM PL peptide, hormetic curve), 2.798; in assay [3] (UNG2(a.a.1-19) competitor, .25 μM PCNA, 50 nM PL peptide, standard curve), 3.423. In addition, the “f (hormesis parameter)” value in assay [3] (UNG2(a.a.1-19) competitor, 1 μM PCNA, hormetic curve) was “.0044^ c”; in assay [3] (setting [5]) it was “.0013^ c”. For the same molecule, in assay [3] (setting [5]), the “c (lower asymptote)” value is “.0572”. Further, the “displacement / hormetic response” value in assay [3] (UNG2(a.a.1-19), .25 and 1 μM PCNA, 50 nM PL peptide) is reported as “displaced PL peptide from PCNA without a hormetic response”. In assay [3] (competitor included in the cuvette without PCNA), the “control: PL peptide anisotropy in the absence of PCNA” value is recorded as “the fluorescence anisotropy of PL peptide was unchanged”.
